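At the GI50, growth is halved. TGI: concentration producing complete growth inhibition.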
Experiments:
Test in all cases: DTP human tumour cell line panel, 384-well format
NCI-H226 lung = test system: NCI-H226 lung
NCI-H23 lung = test system: NCI-H23 lung
NCI-H322M lung = test system: NCI-H322M lung
NCI-H460 NSCLC = test system: NCI-H460 NSCLC
NCI-H522 lung = test system: NCI-H522 lung
NCI/ADR-RES ovarian = test system: NCI/ADR-RES ovarian
OVCAR-3 ovarian = test system: OVCAR-3 ovarian
OVCAR-4 ovarian = test system: OVCAR-4 ovarian
OVCAR-5 ovarian = test system: OVCAR-5 ovarian
OVCAR-8 ovarian = test system: OVCAR-8 ovarian
PC-3 prostate = test system: PC-3 prostate
RPMI-8226 leukemia = test system: RPMI-8226 leukemia
RXF 393 renal = test system: RXF 393 renal
SF-268 CNS = test system: SF-268 CNS
SF-295 CNS = test system: SF-295 CNS
SF-539 CNS = test system: SF-539 CNS
SK-MEL-28 melanoma = test system: SK-MEL-28 melanoma
SK-MEL-5 melanoma = test system: SK-MEL-5 melanoma
SK-OV-3 ovarian = test system: SK-OV-3 ovarian
SN12C renal = test system: SN12C renal
SNB-19 CNS = test system: SNB-19 CNS
SNB-75 CNS = test system: SNB-75 CNS
SW-620 colon = test system: SW-620 colon
T-47D breast = test system: T-47D breast
TK-10 renal = test system: TK-10 renal
U251 glioblastoma = test system: U251 glioblastoma
UACC-257 melanoma = test system: UACC-257 melanoma
UACC-62 melanoma = test system: UACC-62 melanoma
UO-31 renal = test system: UO-31 renal

Q: With CCOc1ccn(-c2ccc(F)cc2)c(=O)c1C(=O)Nc1ccc(Oc2ccnc(N)c2Cl)c(F)c1 as the compound, how does the GI50 (NCI-H226 lung) read?
A: 9.81 µM

Q: What about the TGI (NCI-H226 lung) of the same compound?
A: > 100 µM

Q: What about the GI50 (NCI-H23 lung) of the same compound?
A: 2.64 µM

Q: And the TGI (NCI-H23 lung)?
A: 24.6 µM

Q: And the GI50 (NCI-H322M lung)?
A: 29.3 µM

Q: And the TGI (NCI-H322M lung)?
A: > 100 µM

Q: And the GI50 (NCI-H460 NSCLC)?
A: 3.35 µM

Q: What about the TGI (NCI-H460 NSCLC) of the same compound?
A: 12.1 µM

Q: And the GI50 (NCI-H522 lung)?
A: 4.35 µM

Q: What about the TGI (NCI-H522 lung) of the same compound?
A: 15.7 µM

Q: What about the GI50 (NCI/ADR-RES ovarian) of the same compound?
A: 10.1 µM

Q: What about the TGI (NCI/ADR-RES ovarian) of the same compound?
A: 28.7 µM

Q: What about the GI50 (OVCAR-3 ovarian) of the same compound?
A: 5.47 µM

Q: What about the TGI (OVCAR-3 ovarian) of the same compound?
A: 27.3 µM

Q: And the GI50 (OVCAR-4 ovarian)?
A: 8.05 µM

Q: And the TGI (OVCAR-4 ovarian)?
A: > 100 µM

Q: What about the GI50 (OVCAR-5 ovarian) of the same compound?
A: 19.7 µM

Q: And the TGI (OVCAR-5 ovarian)?
A: > 100 µM

Q: What about the GI50 (OVCAR-8 ovarian) of the same compound?
A: 14.3 µM

Q: And the TGI (OVCAR-8 ovarian)?
A: 48.1 µM

Q: And the GI50 (PC-3 prostate)?
A: 4.15 µM

Q: And the TGI (PC-3 prostate)?
A: 90.3 µM

Q: What about the GI50 (RPMI-8226 leukemia) of the same compound?
A: 3.52 µM

Q: What about the TGI (RPMI-8226 leukemia) of the same compound?
A: > 100 µM

Q: And the GI50 (RXF 393 renal)?
A: 4 µM

Q: And the TGI (RXF 393 renal)?
A: 18.6 µM

Q: What about the GI50 (SF-268 CNS) of the same compound?
A: 2.01 µM

Q: And the TGI (SF-268 CNS)?
A: 8.11 µM

Q: And the GI50 (SF-295 CNS)?
A: 3.81 µM

Q: And the TGI (SF-295 CNS)?
A: 57.7 µM

Q: And the GI50 (SF-539 CNS)?
A: 5.67 µM

Q: What about the TGI (SF-539 CNS) of the same compound?
A: 26.9 µM

Q: What about the GI50 (SK-MEL-28 melanoma) of the same compound?
A: 5.1 µM

Q: What about the TGI (SK-MEL-28 melanoma) of the same compound?
A: 38.7 µM

Q: And the GI50 (SK-MEL-5 melanoma)?
A: 2.99 µM

Q: What about the TGI (SK-MEL-5 melanoma) of the same compound?
A: 12.2 µM

Q: What about the GI50 (SK-OV-3 ovarian) of the same compound?
A: 4.37 µM

Q: What about the TGI (SK-OV-3 ovarian) of the same compound?
A: 20.9 µM

Q: And the GI50 (SN12C renal)?
A: 1.95 µM

Q: What about the TGI (SN12C renal) of the same compound?
A: 46.2 µM

Q: What about the GI50 (SNB-19 CNS) of the same compound?
A: 22.4 µM

Q: What about the TGI (SNB-19 CNS) of the same compound?
A: > 100 µM

Q: What about the GI50 (SNB-75 CNS) of the same compound?
A: 15.4 µM

Q: And the TGI (SNB-75 CNS)?
A: 35.1 µM

Q: And the GI50 (SW-620 colon)?
A: 12 µM

Q: What about the TGI (SW-620 colon) of the same compound?
A: 28.9 µM

Q: And the GI50 (T-47D breast)?
A: 1.67 µM

Q: What about the TGI (T-47D breast) of the same compound?
A: 4.29 µM

Q: What about the GI50 (TK-10 renal) of the same compound?
A: 16.2 µM

Q: What about the TGI (TK-10 renal) of the same compound?
A: 95 µM

Q: What about the GI50 (U251 glioblastoma) of the same compound?
A: 16.3 µM

Q: What about the TGI (U251 glioblastoma) of the same compound?
A: > 100 µM

Q: And the GI50 (UACC-257 melanoma)?
A: 6.47 µM

Q: What about the TGI (UACC-257 melanoma) of the same compound?
A: 27.5 µM

Q: And the GI50 (UACC-62 melanoma)?
A: 2.62 µM

Q: What about the TGI (UACC-62 melanoma) of the same compound?
A: 12.4 µM

Q: And the GI50 (UO-31 renal)?
A: 8.63 µM

Q: What about the TGI (UO-31 renal) of the same compound?
A: 59.3 µM

Reference: PubChem BioAssay (NCI)
